# Legend:
# mouse [1] = conditions: Chronic toxicity; b6c3f1; Oral; Feed; dose end: 2 year; group: systemic; systemic / clinical chemistry / alkaline phosphatase (alp/alk) / alkaline phosphatase (alp/alk) + systemic / organ weight / liver / absolute…
# mouse [2] = conditions: Subchronic oral toxicity in rodents, B6C3F1, Feed, dose end: 3 month, group: systemic
# dog [3] = conditions: Subchronic oral toxicity in nonrodent, beagle, Capsule, dose end: 90 day, group: systemic
# dog [4] = conditions: Chronic toxicity, beagle, Oral, Capsule, dose end: 52 week, group: systemic
# rat [5] = conditions: Multigenerational reproductive toxicity study, fischer, Oral, Feed, dose end: 1 generation
# rat [6] = conditions: Combined chronic toxicity/carcinogenicity, fischer, Oral, Feed, dose end: 2 year, group: systemic
# rat [7] = conditions: Chronic toxicity, fischer, Oral, Feed, dose end: 1 year, group: systemic
# [8] = systemic / hematology / [other] / [other] + systemic / hematology / jolly bodies / jolly bodies + systemic / hematology / macrocytosis / …
# [9] = systemic / hematology / polychromasia / polychromasia + systemic / hematology / lymphocyte / lymphocyte + systemic / in life observation / …
# [10] = group: offspring, systemic / in life observation / clinical signs / urogenital staining + systemic / urinalysis / appearance and color / appearance and color
# [11] = group: parental, systemic / organ weight / liver / absolute + systemic / organ weight / liver / relative to body weight + systemic / in life observation / …
# [12] = systemic / in life observation / clinical signs / urine, discoloration + systemic / clinical chemistry / glucose / glucose
# [13] = systemic / pathology microscopic / mammary gland / fibroadenoma + systemic / clinical chemistry / urea nitrogen / urea nitrogen + systemic…
# [14] = systemic / organ weight / adrenal gland / absolute + systemic / organ weight / adrenal gland / relative to body weight + systemic / organ …
smiles,measurement,setting,value
C=C(C)CN(CC)c1c([N+](=O)[O-])cc(C(F)(F)F)cc1[N+](=O)[O-] [Ethalfluralin],LEL,mouse [1],47 mg/kg/day
same,LOAEL,mouse [1],47 mg/kg/day
same,NEL,mouse [1],11.6 mg/kg/day
same,NOAEL,mouse [1],11.6 mg/kg/day
same,LEL,mouse [2]; systemic / clinical chemistry / bilirubin / total bilirubin + systemic / organ weight / kidney / absolute,136 mg/kg/day
same,NOAEL,mouse [2]; systemic / in life observation / body weight / body weight + systemic / clinical chemistry / alanine aminotransferase (alt/sgpt) / alanine …,285 mg/kg/day
same,LOAEL,mouse [2]; systemic / in life observation / body weight / body weight + systemic / in life observation / body weight / body weight gain,538 mg/kg/day
same,NEL,mouse [2]; systemic / in life observation / body weight / body weight gain + systemic / clinical chemistry / bilirubin / total bilirubin + systemic / …,68 mg/kg/day
same,LOAEL,dog [3]; systemic / in life observation / clinical signs / anorexia + systemic / in life observation / clinical signs / vomitting,125 mg/kg/day
same,LEL,dog [3]; systemic / in life observation / clinical signs / anorexia + systemic / in life observation / clinical signs / vomitting + systemic / in …,125 mg/kg/day
same,LOAEL,dog [4]; [8],20 mg/kg/day
same,NOAEL,dog [4]; [8],4 mg/kg/day
same,LEL,dog [4]; [9],4 mg/kg/day
same,NEL,dog [4]; [9],< 4 mg/kg/day
same,LEL,rat [5]; [10],20 mg/kg/day
same,LOAEL,rat [5]; [10],> 61 mg/kg/day
same,NEL,rat [5]; [10],8 mg/kg/day
same,NOAEL,rat [5]; [10],≥ 61 mg/kg/day
same,LOAEL,"rat [5]; group: parental, systemic / organ weight / liver / absolute + systemic / organ weight / liver / relative to body weight",61 mg/kg/day
same,NEL,rat [5]; [11],8 mg/kg/day
same,NOAEL,rat [5]; [11],20 mg/kg/day
same,LEL,"rat [5]; group: parental, systemic / organ weight / liver / relative to body weight + systemic / in life observation / clinical signs / urogenital staining + systemic…",20 mg/kg/day
same,LEL,rat [6]; [12],5 mg/kg/day
same,NEL,rat [6]; [12],< 5 mg/kg/day
same,LOAEL,rat [6]; [13],> 37.5 mg/kg/day
same,NOAEL,rat [6]; [13],≥ 37.5 mg/kg/day
same,LOAEL,rat [7]; systemic / in life observation / body weight / body weight gain + systemic / organ weight / liver / relative to body weight,37.5 mg/kg/day
same,NOAEL,rat [7]; systemic / in life observation / body weight / body weight gain + systemic / organ weight / liver / relative to body weight + systemic / …,12.5 mg/kg/day
same,LEL,rat [7]; [14],5 mg/kg/day
same,NEL,rat [7]; [14],< 5 mg/kg/day

# Source: EPA's ToxRefDB 2
